IC50 data for one compound are collected here from patent publication US4880924A, “Novel compounds and use thereof in selective cyclization process” (Nelson Research & Development Co., priority 1986, dated 1989).

Experiment [1] has as its target T1, sodium-dependent GABA binding sites (Mus musculus).
T1 construct: from tissue; host or cells: mouse brain membranes
Nature of the experiment: displacement of 3H-GABA from sodium-dependent GABA binding sites in mouse brain membranes (GABA reuptake inactivation process). The conditions noted are these: read-out: Concentration of the test compound showing 50% inhibition of labelled ligand binding. The method, then: (§1) The novel compound prepared above was investigated for its potency in interaction with GABA receptor sites in BRAIN. As described in detail in Roberts et. al. J. Neuroscience, Vol. 1, No. 2, pp. 132-140 (1981), two experiments were performed: (1) the potency of the compound in displacing ^3 H-muscimol, a known GABA agonist, from specific GABA receptor sites in mouse brain membranes, and (2) the potency in displacing ^3 H-GABA from sodium-dependent GABA binding sites in mouse brain membranes, which reflects potency for the GABA reuptake inactivation process. […] This reflects very good potency for the compound prepared in Example 4.

In a further experiment the target is GABA receptor sites. Nature of the experiment: displacement of 3H-muscimol from specific GABA receptor sites in mouse brain membranes. The conditions noted are these: read-out: Concentration of the test compound showing 50% inhibition of labelled ligand binding. The method, then:
as §1
(Displacement assays read how much labelled ligand stays bound in the presence of the test substance.)

Regarding `NCCC(C(=O)O)C1COC(=O)C1` (stereo not drawn) [Example 4, α-(2-aminoethyl)tetrahydro-5-oxo-3-furan acetic acid], the results for the IC50 (in experiment [1]; on GABA receptor sites) were 25 µM and 2.1 µM, respectively.
